Counter-ions that a name gives are not always drawn. Like-named read-outs stand apart in the source and are kept apart here.
Target: human cloned 5-HT6 receptors (Homo sapiens, UniProt P50406)
Assay: 5-HT6 receptor affinity (procedures outlined in WO98/27081)
Type: binding
Description: Compounds can be tested following the procedures outlined in WO98/27081.

Chain of human cloned 5-HT6 receptors (P50406 whole entry): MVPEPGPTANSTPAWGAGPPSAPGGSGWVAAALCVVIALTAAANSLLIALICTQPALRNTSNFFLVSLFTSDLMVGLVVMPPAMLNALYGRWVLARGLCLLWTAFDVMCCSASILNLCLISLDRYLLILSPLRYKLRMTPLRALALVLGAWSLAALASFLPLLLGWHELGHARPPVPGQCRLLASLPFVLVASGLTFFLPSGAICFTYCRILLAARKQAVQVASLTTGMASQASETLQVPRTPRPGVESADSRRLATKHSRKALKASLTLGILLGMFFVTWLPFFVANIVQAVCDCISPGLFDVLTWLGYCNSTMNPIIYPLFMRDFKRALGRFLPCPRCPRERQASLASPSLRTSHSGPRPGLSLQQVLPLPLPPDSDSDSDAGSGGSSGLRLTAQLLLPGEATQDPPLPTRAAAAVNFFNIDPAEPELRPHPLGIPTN

SMILES | Ki [nM] | Ki (human cloned 5-HT6 receptors, read-out: pKi (converted)) [nM]
Clc1cccc(Cc2cnc3c(N4CCNCC4)cccc3c2)c1 [Example E1, 3-[(3-Chlorophenyl)methyl]-8-(1-piperazinyl)quinoline hydrochloride] | < 31.6 | –
O=C(c1cccc(Cl)c1)c1cnc2c(N3CCNCC3)cccc2c1 [Example E2, (3-Chlorophenyl)[8-(1-piperazinyl)-3-quinolinyl]methanone hydrochloride] | – | < 31.6
